Assay results published in the supplement of paper PMC11061612.

Columns and labels:
[1] = compound: NC1(c2ccc(-c3nc4ccn5c(=O)[nH]nc5c4cc3-c3ccccc3)cc2)CCC1 [MK-2206]; details: max 10 µM
Method in brief: (§1)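 After 24 hours at 37°C and 5% CO2 in 1536-well plates holding 7.5 μl of DMEM/F12 or RPMI with 10% FBS, cancer cell lines were dosed for 72 hours, with final DMSO typically 0.2%. Viability came from CellTiter-Glo 2.0 luminescence, scaled between the means of blank wells and DMSO wells. A non-linear mixed effects model fitted a two-parameter logistic curve to each dose response to give the single-agent IC50.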

[2] = compound: O=c1[nH]cc(F)c(=O)[nH]1 [5-Fluorouracil]; details: max 20 µM
Method in brief: as §1

[3] = compound: C=CCn1c(=O)c2cnc(Nc3ccc(N4CCN(C)CC4)cc3)nc2n1-c1cccc(C(C)(C)O)n1 [AZD1775]; details: max 3 µM
Method in brief: as §1

[4] = compound: COc1cccc2c1C(=O)c1c(O)c3c(c(O)c1C2=O)C[C@@](O)(C(=O)CO)C[C@@H]3O[C@H]1C[C@H](N)[C@H](O)[C@H](C)O1 [Doxorubicin]; details: max 1 µM
Method in brief: as §1

[5] = compound: Cn1cnc2c(F)c(Nc3ccc(Br)cc3Cl)c(C(=O)NOCCO)cc21 [Selumetinib]; details: max 10 µM
Method in brief: as §1

[6] = compound: CC1(C)CCC(CN2CCN(c3ccc(C(=O)NS(=O)(=O)c4ccc(NCC5CCOCC5)c([N+](=O)[O-])c4)c(Oc4cnc5[nH]ccc5c4)c3)CC2)=C(c2ccc(Cl)cc2)C1 [Venetoclax]; details: max 1 µM
Method in brief: as §1

[7] = compound: CC(=O)Nc1cccc(-n2c(=O)n(C3CC3)c(=O)c3c(Nc4ccc(I)cc4F)n(C)c(=O)c(C)c32)c1 [Trametinib]; details: max 1 µM
Method in brief: as §1

[8] = compound: CS(=O)(=O)CCNCc1ccc(-c2ccc3ncnc(Nc4ccc(OCc5cccc(F)c5)c(Cl)c4)c3c2)o1 [Lapatinib]; details: max 10 µM
Method in brief: as §1

[9] = compound: COc1cc(Nc2ncc3c(n2)-c2ccc(Cl)cc2C(c2c(F)cccc2OC)=NC3)ccc1C(=O)O [Alisertib]; details: max 10 µM
Method in brief: as §1

[10] = compound: CCN(CCO)CCCOc1ccc2c(Nc3cc(CC(=O)Nc4cccc(F)c4)[nH]n3)ncnc2c1 [AZD2811]; details: max 1 µM
Method in brief: as §1

[11] = compound: CC(=O)O[C@H]1C(=O)[C@@]2(C)[C@H]([C@H](OC(=O)c3ccccc3)[C@]3(O)C[C@H](OC(=O)[C@H](O)[C@@H](NC(=O)c4ccccc4)c4ccccc4)C(C)=C1C3(C)C)[C@]1(OC(C)=O)CO[C@@H]1C[C@@H]2O [Paclitaxel]; details: max 3 µM
Method in brief: as §1

[12] = compound: CN(CC[C@H](CSC1=CC=CC=C1)NC2=C(C=C(C=C2)S(=O)(=O)NC(=O)C3=CC=C(C=C3)N4CCC(CC4)[C@H](C5=CC=CC=C5C6=CC=C(C=C6)Cl)O)S(=O)(=O)C(F)(F)F)CCO [AZD4320]; details: max 1 µM
Method in brief: as §1

[13] = compound: CC(=O)c1c(C)c2cnc(Nc3ccc(N4CCNCC4)cn3)nc2n(C2CCCC2)c1=O [Palbociclib]; details: max 10 µM
Method in brief: as §1

[14] = compound: C[C@@H](Oc1cc(-c2cnn(C3CCNCC3)c2)cnc1N)c1c(Cl)ccc(F)c1Cl [Crizotinib]; details: max 10 µM
Method in brief: as §1

[15] = compound: Cc1c2c(nn1C)CSCc1cc(n(C)n1)CSc1cc(c3ccccc3c1)OCCCc1c(C(=O)O)n(C)c3c-2c(Cl)ccc13 [AZD5991]; details: max 1 µM
Method in brief: as §1

[16] = compound: COc1cc2ncnc(Nc3ccc(F)c(Cl)c3)c2cc1OCCCN1CCOCC1 [Gefitinib]; details: max 10 µM
Method in brief: as §1

[17] = compound: C[C@@H](Nc1cc(F)cc(F)c1)c1cc(C(=O)N(C)C)cc2c(=O)cc(N3CCOCC3)oc12 [AZD8186]; details: max 10 µM
Method in brief: as §1

[18] = compound: COc1nnc2ccc(N3CCC(c4ccc(OCCN5CCN(C)C(=O)[C@H]5C)cc4)CC3)nn12 [AZD5153]; details: max 1 µM
Method in brief: as §1

[19] = compound: Nc1ccn([C@@H]2O[C@H](CO)[C@@H](O)C2(F)F)c(=O)n1 [Gemcitabine]; details: max 0.3 µM
Method in brief: as §1

[20] = compound: Cc1cc2ncnn2cc1Nc1ncc2c(n1)n(C1CCOCC1)c(=O)n2C [AZD7648]; details: max 10 µM
Method in brief: as §1

[21] = compound: COc1cc([C@@H]2c3cc4c(cc3[C@@H](O[C@@H]3O[C@@H]5CO[C@@H](C)O[C@H]5[C@H](O)[C@H]3O)[C@H]3COC(=O)[C@H]23)OCO4)cc(OC)c1O [Etoposide]; details: max 10 µM
Method in brief: as §1

[22] = compound: C1CN(CCC1(C(=O)N[C@@H](CCO)C2=CC=C(C=C2)Cl)N)C3=NC=NC4=C3C=CN4 [AZD5363]; details: max 10 µM
Method in brief: as §1

[23] = compound: O=C(c1cc(Cc2n[nH]c(=O)c3ccccc23)ccc1F)N1CCN(C(=O)C2CC2)CC1 [Olaparib]; details: max 10 µM
Method in brief: as §1

[24] = compound: O=C(Nc1ccc2[nH]nc(-c3ccncc3)c2c1)[C@@H]1CCN(CC(=O)N2CCN(c3ccc(-c4ncccn4)cc3)CC2)C1; details: max 5 µM
Method in brief: as §1

[25] = compound: COc1cccc(OCCCN)c1-c1cc(Nc2cnc(C#N)cn2)n[nH]1 [Prexasertib]; details: max 1 µM
Method in brief: as §1

[26] = compound: N#Cc1cnc(Nc2cc(NC[C@H]3CNCCO3)c(C(F)(F)F)cn2)cn1 [SRA737]; details: max 10 µM
Method in brief: as §1

[27] = compound: C1CC(C1)(C(=O)[O-])C(=O)[O-].N.N.[Pt+2] [Carboplatin]; details: max 10 µM
Method in brief: as §1

[28] = compound: CC(C)n1c(=O)n(C)c2cnc3cc(F)c(-c4ccc(OCCCN5CCCCC5)nc4)cc3c21 [AZD1390]; details: max 0.3 µM
Method in brief: as §1

[29] = compound: CN(C)CCCOc1ccc(-c2ccc3ncc4c(c3c2)n(C2CCOCC2)c(=O)n4C)cn1 [AZD0156]; details: max 3 µM
Method in brief: as §1

[30] = compound: CC1=C(C(=CC=C1)Cl)NC(=O)C2=CN=C(S2)NC3=CC(=NC(=N3)C)N4CCN(CC4)CCO [Dasatinib]; details: max 2 µM
Method in brief: as §1

[31] = compound: CCc1c2c(nc3ccc(O)cc13)-c1cc3c(c(=O)n1C2)COC(=O)[C@]3(O)CC [SN-38]; details: max 0.3 µM
Method in brief: as §1

[32] = compound: Cc1nc(-c2cn3c(n2)-c2ccc(-c4cnn(C(C)(C)C(N)=O)c4)cc2OCC3)n(C(C)C)n1 [Taselisib]; details: max 10 µM
Method in brief: as §1

[33] = compound: CC1=CN2[C@@H](C1)C=NC3=CC(=C(C=C3C2=O)OC)OCCCCCOC4=C(C=C5C(=C4)N=C[C@@H]6CC(=CN6C5=O)C)OC [SG3199]; details: max 0.001 µM
Method in brief: as §1

[34] = compound: C[C@@H](c1ccc2nccn2c1)n1nnc2ncc(-c3cnn(C)c3)nc21 [Savolitinib]; details: max 1 µM
Method in brief: as §1

[35] = compound: C[C@@H]1COCCN1C2=NC(=NC(=C2)C3(CC3)[S@](=N)(=O)C)C4=C5C=CNC5=NC=C4 [AZD6738]; details: max 10 µM
Method in brief: as §1

Cell Line | IC50, cell viability 72 h [1] [µM] | IC50, cell viability 72 h [2] [µM] | IC50, cell viability 72 h [3] [µM] | IC50, cell viability 72 h [4] [µM] | IC50, cell viability 72 h [5] [µM] | IC50, cell viability 72 h [6] [µM] | IC50, cell viability 72 h [7] [µM] | IC50, cell viability 72 h [8] [µM] | IC50, cell viability 72 h [9] [µM] | IC50, cell viability 72 h [10] [µM] | IC50, cell viability 72 h [11] [µM] | IC50, cell viability 72 h [12] [µM] | IC50, cell viability 72 h [13] [µM] | IC50, cell viability 72 h [14] [µM] | IC50, cell viability 72 h [15] [µM] | IC50, cell viability 72 h [16] [µM] | IC50, cell viability 72 h [17] [µM] | IC50, cell viability 72 h [18] [µM] | IC50, cell viability 72 h [19] [µM] | IC50, cell viability 72 h [20] [µM] | IC50, cell viability 72 h [21] [µM] | IC50, cell viability 72 h [22] [µM] | IC50, cell viability 72 h [23] [µM] | IC50, cell viability 72 h [24] [µM] | IC50, cell viability 72 h [25] [µM] | IC50, cell viability 72 h [26] [µM] | IC50, cell viability 72 h [27] [µM] | IC50, cell viability 72 h [28] [µM] | IC50, cell viability 72 h [29] [µM] | IC50, cell viability 72 h [30] [µM] | IC50, cell viability 72 h [31] [µM] | IC50, cell viability 72 h [32] [µM] | IC50, cell viability 72 h [33] [µM] | IC50, cell viability 72 h [34] [µM] | IC50, cell viability 72 h [35] [µM]
NCI-H2731 (Mesothelioma) | > 10 | > 20 | > 3 | > 1 | > 10 | > 1 | > 1 | > 10 | > 10 | > 1 | 1.78 | > 1 | > 10 | > 10 | > 1 | > 10 | > 10 | > 1 | > 0.3 | > 10 | > 10 | > 10 | > 10 | > 5 | > 1 | > 10 | > 10 | > 0.3 | > 3 | > 2 | > 0.3 | > 10 | > 0.001 | > 1 | > 10
COR-L279 (Small Cell Lung Carcinoma) | 3.15 | > 20 | 1.6 | 0.0421 | > 10 | > 1 | > 1 | 6.64 | 0.952 | 0.093 | < 0.003 | 0.198 | > 10 | 3.71 | > 1 | > 10 | 7.51 | 0.178 | 0.0346 | > 10 | 0.843 | 9.25 | 3.43 | > 5 | 0.0979 | > 10 | > 10 | > 0.3 | > 3 | > 2 | 0.00169 | 2.13 | > 0.001 | > 1 | 7.38
